Data as given in patent publication US10738028B2, “Spiro three-membered ring, spiro five-membered ring peptide deformylase inhibitor and use thereof in antibacteria and anti-tumor” (priority 2016, dated 2020).

Experiments:
Type in all cases: cell-based
[1] = system: Enterococcus faecalis (EFA); test: MIC, two-fold agar dilution (CLSI), clinical isolates
Outline: (§1)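 Susceptibility was tested using CLSI two-fold agar dilution against the strains examined.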

[2] = system: Enterococcus faecium (EFM); test: as above
Outline: as §1

[3] = system: Escherichia coli (including ESBLs, non-ESBLs); test: as above
Outline: as §1

[4] = system: Moraxella catarrhalis (BCA); test: as above
Outline: as §1

[5] = system: Streptococcus pneoumoniae (SPN); test: as above
Outline: as §1

[6] = system: methicillin-resistant Staphylococcus aureus (MRSA); test: as above
Outline: as §1

[7] = system: methicillin-resistant Staphylococcus epidermidis (MRSE); test: as above
Outline: as §1

[8] = system: methicillin-sensitive Staphylococcus aureus (MSSA); test: as above
Outline: as §1

[9] = system: methicillin-sensitive Staphylococcus epidermidis (MSSE); test: as above
Outline: as §1

[10] = system: HCT-116 colorectal cancer cell line; test: CCK-8 proliferation inhibition; conditions: concentration of 30 μM, 72 hours, CCK-8
Outline: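 2000 cells/well, McCoy's 5A + 10% newborn bovine serum; overnight attach, 37° C./5% CO2. Cpd from DMSO stock diluted in medium, 72 h. Readout: CCK-8 (1:10). Ctrl 1‰ DMSO.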

[11] = system: A549 lung cancer cell line; test: CCK-8 proliferation inhibition; conditions: concentration of 30 μM
Outline: (§2)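 Plating at 2000 cells/well, then incubation overnight at 37° C. Next, a range of compound concentrations for 72 hours (control 1‰ DMSO). Finally, medium decanted and CCK-8 diluted 1:10 added.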

[12] = system: BEL-7402 liver cancer cell line; test: CCK-8 proliferation inhibition; conditions: concentration of 30 μM
Outline: as §2

[13] = system: MGC-803 gastric cancer cell line; test: CCK-8 proliferation inhibition; conditions: Homo sapiens, MGC-803, 72 h, concentration of 30 μM
Outline: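 CCK-8 read-out after 72 h drug exposure; 2000 cells/well, overnight pre-culture (37° C, 5% CO2); vehicle 1‰ DMSO. Media: PC3 F12; MGC-803/Jurkat 1640; MCF-7 DMEM high glucose; all +10% newborn bovine serum, 1% antibiotics.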

Question: What does the source list for `CCCC[C@H](CC(=O)NO)C(=O)N1CC2(CC2)C[C@H]1C(=O)Nc1nc(C(F)(F)F)cs1` [Example 57]?
Answer: Anti-bacterial activity (MIC), strain EFA 15-1 ([1]; clinical isolate EFA 15-1): 8 µg/mL; Anti-bacterial activity (MIC), strain EFA 15-2 ([1]; clinical isolate EFA 15-2): 8 µg/mL; Anti-bacterial activity (MIC), strain EFA 15-3 ([1]; clinical isolate EFA 15-3): 8 µg/mL; Anti-bacterial activity (MIC), strain EFA 15-4 ([1]; clinical isolate EFA 15-4): 8 µg/mL; Anti-bacterial activity (MIC), strain EFA 15-5 ([1]; clinical isolate EFA 15-5): 8 µg/mL; Anti-bacterial activity (MIC), strain EFA 15-6 ([1]; clinical isolate EFA 15-6): 8 µg/mL; Anti-bacterial activity (MIC), strain EFA 15-9 ([1]; clinical isolate EFA 15-9): 8 µg/mL; Anti-bacterial activity (MIC), strain EFM 15-1 ([2]; clinical isolate EFM 15-1): 1 µg/mL; Anti-bacterial activity (MIC), strain EFM 15-2 ([2]; clinical isolate EFM 15-2): 2 µg/mL; Anti-bacterial activity (MIC), strain EFM 15-3 ([2]; clinical isolate EFM 15-3): 0.25 µg/mL; Anti-bacterial activity (MIC), strain EFM 15-4 ([2]; clinical isolate EFM 15-4): 1 µg/mL; Anti-bacterial activity (MIC), strain EFM 15-5 ([2]; clinical isolate EFM 15-5): 0.5 µg/mL; Anti-bacterial activity (MIC), strain EFM 15-6 ([2]; clinical isolate EFM 15-6): 4 µg/mL; Anti-bacterial activity (MIC), strain ECO+ 15-1 ([3]; clinical isolate ECO+ 15-1): 32 µg/mL; Anti-bacterial activity (MIC), strain ECO+ 15-2 ([3]; clinical isolate ECO+ 15-2): > 32 µg/mL; Anti-bacterial activity (MIC), strain ECO+ 15-3 ([3]; clinical isolate ECO+ 15-3): > 32 µg/mL; Anti-bacterial activity (MIC), strain ECO+ 15-4 ([3]; clinical isolate ECO+ 15-4): > 32 µg/mL; Anti-bacterial activity (MIC), strain ECO− 15-1 ([3]; clinical isolate ECO− 15-1): > 32 µg/mL; Anti-bacterial activity (MIC), strain ECO− 15-2 ([3]; clinical isolate ECO− 15-2): > 32 µg/mL; Anti-bacterial activity (MIC), strain ECO− 15-3 ([3]; clinical isolate ECO− 15-3): > 32 µg/mL; Anti-bacterial activity (MIC), strain ECO− 15-4 ([3]; clinical isolate ECO− 15-4): > 32 µg/mL; Anti-bacterial activity (MIC), strain BCA 14-1 ([4]; clinical isolate BCA 14-1): 0.5 µg/mL; Anti-bacterial activity (MIC), strain BCA 14-4 ([4]; clinical isolate BCA 14-4): 0.5 µg/mL; Anti-bacterial activity (MIC), strain BCA 14-5 ([4]; clinical isolate BCA 14-5): 0.5 µg/mL; Anti-bacterial activity (MIC), strain BCA 14-6 ([4]; clinical isolate BCA 14-6): 1 µg/mL; Anti-bacterial activity (MIC), strain BCA 14-7 ([4]; clinical isolate BCA 14-7): 0.25 µg/mL; Anti-bacterial activity (MIC), strain BCA 14-8 ([4]; clinical isolate BCA 14-8): 0.25 µg/mL; Anti-bacterial activity (MIC), strain BCA 14-10 ([4]; clinical isolate BCA 14-10): 0.25 µg/mL; Anti-bacterial activity (MIC), strain SPN 16-2 ([5]; clinical isolate SPN 16-2): 2 µg/mL; Anti-bacterial activity (MIC), strain SPN 16-4 ([5]; clinical isolate SPN 16-4): 0.25 µg/mL; Anti-bacterial activity (MIC), strain MRSA 15-1 ([6]; clinical isolate MRSA 15-1): 0.5 µg/mL; Anti-bacterial activity (MIC), strain MRSA 15-2 ([6]; clinical isolate MRSA 15-2): 0.5 µg/mL; Anti-bacterial activity (MIC), strain MRSA 15-3 ([6]; clinical isolate MRSA 15-3): 0.5 µg/mL; Anti-bacterial activity (MIC), strain MRSA 15-4 ([6]; clinical isolate MRSA 15-4): 0.5 µg/mL; Anti-bacterial activity (MIC), strain MRSE 15-1 ([7]; clinical isolate MRSE 15-1): 0.125 µg/mL; Anti-bacterial activity (MIC), strain MRSE 15-2 ([7]; clinical isolate MRSE 15-2): 0.125 µg/mL; Anti-bacterial activity (MIC), strain MRSE 15-3 ([7]; clinical isolate MRSE 15-3): 0.125 µg/mL; Anti-bacterial activity (MIC), strain MRSE 15-7 ([7]; clinical isolate MRSE 15-7): 0.25 µg/mL; Anti-bacterial activity (MIC), strain MSSA 15-3 ([8]; clinical isolate MSSA 15-3): 0.5 µg/mL; Anti-bacterial activity (MIC), strain MSSA 15-4 ([8]; clinical isolate MSSA 15-4): 0.125 µg/mL; Anti-bacterial activity (MIC), strain MSSA 15-5 ([8]; clinical isolate MSSA 15-5): 0.125 µg/mL; Anti-bacterial activity (MIC), strain MSSA 15-6 ([8]; clinical isolate MSSA 15-6): 0.125 µg/mL; Anti-bacterial activity (MIC), strain MSSE 15-3 ([9]; clinical isolate MSSE 15-3): 0.25 µg/mL; Anti-bacterial activity (MIC), strain MSSE 15-4 ([9]; clinical isolate MSSE 15-4): 0.125 µg/mL; Anti-bacterial activity (MIC), strain MSSE 15-5 ([9]; clinical isolate MSSE 15-5): 0.125 µg/mL; Anti-bacterial activity (MIC), strain MSSE 15-6 ([9]; clinical isolate MSSE 15-6): 0.06 µg/mL; inhibition at 30 µM ([10]; Homo sapiens, HCT-116, 72 h, read-out: HCT116 inhibition rate/%): > 50%; HCT116 inhibition rate/% ([10]; 30 µM): 52%; inhibition at 30 µM ([11]; Homo sapiens, A549, 72 h): > 50%; Inhibition of proliferation, Lung cancer A549 ([11]; 72 hours, 30 µM): 52%; inhibition at 30 µM ([12]; Homo sapiens, Bel-7402, 72 h): > 50%; Inhibition of proliferation, Liver cancer BEL-7402 ([12]; 72 hours, 30 µM): 57%; inhibition at 30 µM [13]: 34%
